From patent publication US20140349941A1, “AROMATIC-CATIONIC PEPTIDES AND USES OF SAME” (Cornell University, priority 2011, published 2014)

Columns and labels:
[1] = biological target: cyt c (Homo sapiens, UniProt P99999); assay: Cyclic voltammetry of cyt c in solution
[2] = biological target: T1, horse radish peroxidase (HRP) (Armoracia rusticana, UniProt P00433); assay: HRP activity (amplex red); format: biochemical; conditions: data not shown
T1 sequence (P00433 31-338 limits assumed): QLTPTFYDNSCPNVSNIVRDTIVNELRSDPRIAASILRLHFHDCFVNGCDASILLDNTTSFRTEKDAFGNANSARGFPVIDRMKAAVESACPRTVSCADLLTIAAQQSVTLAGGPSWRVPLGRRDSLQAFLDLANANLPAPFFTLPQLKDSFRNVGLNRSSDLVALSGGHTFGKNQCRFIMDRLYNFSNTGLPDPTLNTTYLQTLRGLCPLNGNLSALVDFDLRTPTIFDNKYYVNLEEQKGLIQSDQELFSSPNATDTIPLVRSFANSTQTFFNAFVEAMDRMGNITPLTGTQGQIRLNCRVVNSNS
Description: The six coordination of the heme in cytochrome c prevents direct interaction of H2O2 with the catalytic metal site, and native cytochrome c in solution is a poor peroxidase. Upon interaction with CL, cytochrome c undergoes a structural change with rupture of the Fe-Met80 coordination. […] The mechanism of action of cytochrome c peroxidase is similar to that of other peroxidases, such as horse radish peroxidase (HRP). Thus it is possible to use the amplex red-HRP reaction to investigate cytochrome c peroxidase activity. In the presence of peroxidase, amplex red (AR) reacts with H2O2 to form the red-fluorescent oxidation product, resorufin (Ex/Em=571/585).

[3] = biological target: cyt c heme (Homo sapiens, UniProt P99999); assay: Circular dichroism of cyt c Soret band; format: binding; conditions: negative peak at 415 nm without peptide; FIG. 4
Protocol: Circular dichroism (Olis spectropolarimeter, DSM20) was carried out to monitor Soret band (negative peak at 415 nm), as a probe for the π-π* heme environment in cyt c (FIG. 4). […] The increase in π-π* interaction around the heme would enhance electron tunneling which would be favorable for electron diffusion.

[4] = biological target: cytochrome c (Homo sapiens, UniProt P99999); assay: Cytochrome c reduction monitored by absorption spectroscopy (glutathione or NAC as reducing agent); format: biochemical
Protocol: Cytochrome c reduction: increasing amounts of aromatic-cationic peptides were added to a solution of oxidized cyt c. The formation of reduced cyt c was monitored by absorbance at […]. The rate of cyt c reduction was determined by non-linear analysis (Prizm software).
Time-resolved UV-Visible absorption spectroscopy was used to study the electron transport process of cyt c in the presence of peptides. Reduced cyt c was monitored by absorbance at a broad-band spectral range (200-1100 nm). The absorption changes were recorded with a UV/Visible spectrophotometer (Ultrospec 3300 pro, GE) in quartz cells with path lengths of 1 or 2 mm. N-acetylcysteine (NAC) and glutathione were used as electron donors to reduce oxidized cyt c. The rate constant of cyt c reduction was estimated by adding various concentrations of peptides. The dose dependence of the peptides was correlated to the cyt c reduction kinetics.
Absorption spectroscopy (UltroSpec 3300 Pro; 220-1100 nm) was used to determine if SS-31 modulates cyt c reduction (FIG. 1). Reduction of cyt c with glutathione is associated with multiple shifts in the Q band (450-650 nm), with a prominent shift at 550 nm.
Reduction of cyt c was monitored by increase in absorbance at 550 nm. […] Similar results were obtained using N-acetylcysteine (NAC) as a reducing agent (not shown).

[5] = system: cyt c-depleted mitoplasts; assay: Respiration in cytochrome c-depleted mitoplasts; format: biochemical, rat
Protocol: Rates of respiration were measured in the presence of 500 μM Succinate with or without 100 μM SS-31. The experiment was carried out in triplicate, with n=3.
A model of cyt C tightly bound to mitochondrial cardiolipin was used to investigate interaction of SS-31 with cytochrome c-CL complex in mitochondria. After removal of outer membrane with digitonin, mitoplasts were washed with 120 mM KCl to remove all free and electrostatically associated cytochrome c, leaving only cytochrome c tightly bound to CL.

Chain of cytochrome c (P99999 2-105 limits assumed, species assumed): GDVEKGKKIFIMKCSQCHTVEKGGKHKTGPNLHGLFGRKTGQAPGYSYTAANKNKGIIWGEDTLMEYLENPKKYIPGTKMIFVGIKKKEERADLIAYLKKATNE
Chain of cyt c (P99999 2-105 limits assumed, species assumed): as above
Chain of cyt c heme (P99999 2-105 limits assumed, species assumed): as above

For D-Arg-2′6′Dmt-Lys-Phe-NH2 [SS-31], the “current for reduction and oxidation processes of cyt c” value ([1]; Au working electrode, Ag/AgCl reference, FIG. 2 upper panel) was “increased current for both reduction and oxidation processes”, the “reduction/oxidation potentials of cyt c” value ([1]; FIG. 2 upper panel) was “does not alter reduction/oxidation potentials” and the “increase of current (electron diffusion rate)” value ([1]; cyt c:SS31=1:2, TBE buffer, FIG. 2 lower panel) was roughly 200%. The HRP activity [2] was “had no effect on HRP activity”, the “position of Soret band negative peak after red shift” value [3] was 440 nm and the “rate of NAC-induced cyt c reduction” value ([4]; N-acetylcysteine as reducing agent) was “dose-dependently increased the rate of NAC-induced cyt c reduction”. For the same substance, the “kinetics of cyt c reduction induced by glutathione (GSH)” value ([4]; absorbance at 550 nm, FIG. 13) was “can accelerate the kinetics of cyt c reduction”, the “cyt c reduction by peptide alone” value ([4]; peptide alone at 100 μM) was “did not reduce cyt c” and the “spectral weight shift at 550 nm of cyt c” value ([4]; reduction of cyt c with glutathione, FIG. 1A) was “significant spectral weight shift at 550 nm”. For the same substance, the “rate of cyt c reduction” value ([4]; time-dependent spectroscopy, FIG. 1B) was “increased the rate of cyt c reduction”, the “mitochondrial O2 consumption (respiration)” value ([5]; 500 μM succinate, 100 μM peptide, once-frozen rat kidney mitochondria, FIG. 7) was “Enhances Respiration in Cytochrome C-Depleted Mitoplasts” and the “complex II respiration in mitoplasts” value ([5]; cytochrome c tightly bound to CL, digitonin, 120 mM KCl wash, dose-dependent, FIG. 28) was “enhances complex II respiration”.
